US20220168389A1, “METHODS OF MAKING CHIMERIC ANTIGEN RECEPTOR-EXPRESSING CELLS” (priority 2019, published 2022)

Tested on: freshly isolated, quiescent human T cells
Assay: Lentiviral transduction of freshly isolated quiescent (non-activated) T cells, flow cytometry
Type: cell-based
Procedure: Peripheral blood leukocytes from healthy donors were obtained from the Human Immunology Core. Informed consent was obtained from all participants prior to collection. All methods and experimental procedures were approved by the University of Pennsylvania Institutional Review Board. T cells were purified at the University's Human Immunology Core by negative selection using the RosetteSep T cell enrichment Cocktail. T cells were serum starved in RPMI media containing 10 mM HEPES, 2 mM L-glutamine 100 U/mL penicillin G and 100 μg/mL streptomycin for 2-6 hours and then resuspended at a concentration of 10^7 T cells/mL in X-VIVO 15 (Cambrex, Walkersville, Md.) supplemented with 5% normal human AB serum (Valley Biomedical, Winchester, Va.), 2 mM L-glutamine (Cambrex), 20 mM HEPES (Cambrex), IL7 and IL15 (10 ng/mL, Miltenyi Biotec), and deoxynucleosides (50 μM, Sigma). As the medium was switched to X-VIVO 15, T cells were simultaneously transduced with CD19-BBζ CAR or iRFP lentiviral supernatants for 24 hours.
1×10^6 cells were stained for cell surface markers to analyze T-cell differentiation status. […] Cells were washed with phosphate-buffered saline (PBS) and stained for viability using LIVE/DEAD Fixable Violet (Molecular Probes) for 15 minutes, washed once, and resuspended in fluorescence activated cell sorting (FACS) buffer containing PBS, 1% BSA, and 5 mM EDTA. […] Positively stained cells were differentiated from background using fluorescence-minus-one (FMO) controls. […]
For activated T cells, cells were resuspended at 10^6 T cells/mL in X-VIVO 15 (Cambrex, Walkersville, Md.) supplemented with 5% human AB serum (Valley Biomedical, Winchester, Va.), 2 mM L-glutamine (Cambrex), 20 mM HEPES (Cambrex), IL-7 and IL-15 (10 ng/mL, Miltenyi Biotec). […] Cell volume was also measured with a Multisizer III particle counter (Beckman-Coulter) every other day. […]
T cell differentiation was assessed using the following antibodies: anti-CCR7-FITC (BD Pharmingen); anti-CD45RO-PE, anti-CD8-H7APC (BD Biosciences); anti-CD4-BV510, anti-CD3-BV605, anti-CD14-Pacific Blue (PB), anti-CD19-PB (BioLegend). […]

## deoxynucleosides [dNs]
50 μM dNs vs cells in medium containing IL-7 and IL-15, iRFP vector (FIG. 2B)
  increase in transduction efficiency of quiescent T cells: 3 fold
50 μM dNs, normalized to complete media without dNs, iRFP vector (FIG. 6B)
  increase in lentiviral transduction of non-activated T cells: ~2 fold
Serum starvation combined with high concentrations of dNs (FIG. 2B)
  transduction efficiency in quiescent T cells: exceeding 50%
